Laboratory results from patent publication US9359311B2, “Substituted aromatic oligomers” (NEUROSCIOS GMBH, priority 2011, dated 2016).
“Also recorded” adds a separate entry of the source.

Columns and labels:
[1] = molecular target: T1, Human Aβ38, Aβ40 and Aβ42 (Homo sapiens, UniProt P05067); test: Human Aβ38, Aβ40 and Aβ42 in SDS brain homogenate fraction of hAPPSL Tg mice after 90 days treatment; format: in vivo, mouse; conditions: twice daily i.p., p-FTAA 1 or 10 mg/kg/day, P9707_003 10 mg/kg/day
T1 construct: from tissue; host or cells: CSF and left brain hemisphere (SDS fraction) of transgenic hAPPSL mice
T1 sequence (P05067 672-713 limits assumed): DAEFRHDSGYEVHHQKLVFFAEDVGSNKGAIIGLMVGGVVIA
Method: (§1) Vehicle: Phosphate Buffered Saline (PBS; 6.7 mM PO4, 155 mM NaCl, pH=7.3-7.5) (BioWhittaker PBS from Lonza).
(§2) Test item (T.I.): p-FTAA and P9707_003 diluted in vehicle from stock solution in deionized water (10 mg/ml).
(§3) Tg hAPPSL: Transgenic hAPPSL mice over-expressing hAPP(751) under the control of the murine Thy-1 promoter with a C57BL/6xDBA background.
(§4) Human Aβ38, Aβ40 and Aβ42 were determined in homogenates of the left brain hemispheres and in CSF samples of all Tg animals by an immunosorbent assay from Mesoscale Discovery
48 hAPP Tg mice plus 4 reserves allocated to 4 different treatment groups were treated with either vehicle only (control), p-FTAA or P9707_003. As an additional control, 12 nTg littermates of the hAPPSL mice (plus 1 reserve) were treated with vehicle only. Starting at 6.5 months of age, female hAPPSL mice were treated with vehicle only, p-FTAA (dosage: 1 or 10 mg/kg/day) or P9707_003 (dosage: 10 mg/kg/day) for 90 days. […]
(§5) In the brain homogenate SDS fraction and in CSF of each Tg mouse, human Aβ38, Aβ40 and Aβ42 levels were measured with a Aβ-kit from Mesoscale Discovery. Aβ levels were evaluated in comparison to a peptide standard as pg/mg brain (wet weight) or pg/ml CSF.
Descriptive statistical analysis was performed on all evaluated parameters. […] Group differences between all Tg groups were calculated by a parametric ANOVA followed by a Bonferroni post test.

biotinylated Aβ1-42 = molecular target: T2, biotinylated Aβ1-42 (Homo sapiens, UniProt P05067); test: Inhibition of Abeta oligomerisation (biotinylated Aβ1-42, neutravidin plate, streptavidin-HRP); format: biochemical; conditions: inhibition of Aβ1-42 aggregation, approximately 12 nM Aβ1-42, PBS pH 7.4, 2% DMSO, 30 min RT
T2 construct: To assure monomerisation of biotinylated Aβ1-42 (Anaspec #23523-0.5) the peptide was thoroughly monomerised; purchased Anaspec 23523-0.5
T2 sequence (P05067 672-713 limits assumed): as above

[2] = molecular target: T1, Human Aβ38, Aβ40 and Aβ42; test: Human Aβ38, Aβ40 and Aβ42 in CSF of hAPPSL Tg mice after 90 days treatment (immunosorbent assay); format: in vivo, mouse; conditions: twice daily i.p.
Method: as §1, §2, §3, §4
48 hAPP Tg mice plus 4 reserves allocated to 4 different treatment groups were treated with either vehicle only (control), p-FTAA or P9707_003. As an additional control, 12 nTg littermates of the hAPPSL mice (plus 1 reserve) were treated with vehicle only. Starting at 6.5 months of age, female hAPPSL mice were treated with vehicle only, p-FTAA (dosage: 1 or 10 mg/kg/day) or P9707_003 (dosage: 10 mg/kg/day) for 90 days. The Test Items (T.I.s) were administered in Vehicle. Compound and vehicle were administered twice daily i.p. for 90 days. Tg hAPPSL mice with a C57BL/6xDBA background and corresponding nTg littermates at an age of 6.5 months (±2 weeks) were randomly assigned to the treatment groups.
as §5
Descriptive statistical analysis was performed on all evaluated parameters. All data were represented as mean±standard error of mean (SEM). Grubb's test was used to detect outliers. Normality distribution of the values was tested with Kolmogorov Smirnov normality distribution test. Group differences between all Tg groups were calculated by a parametric ANOVA followed by a Bonferroni post test.

IC50 (biotinylated Aβ1-42): 794 nM | Mean Aβ levels in CSF, relative to vehicle control (PBS control) ([2]; 10 mg/kg/day, female hAPPSL Tg mice, Aβ38, Aβ40, Aβ42, % of vehicle control): about 60% | CSF Aβ levels ([2]; hAPPSL Tg mice, p-FTAA 1 or 10 mg/kg/day, P9707_003 10 mg/kg/day): decreased
Compound: O=C(O)Cc1ccsc1-c1ccc(-c2sc(-c3ccc(-c4cc(CC(=O)O)c(-c5ccc(-c6sccc6CC(=O)O)s5)s4)s3)cc2CC(=O)O)s1 [Example 1, 2-(2-{5-[3-(Carboxymethyl)-5-{5-[4-(carboxymethyl)-5-{5-[3-(carboxymethyl)thiophen-2-yl]thiophen-2-yl}thiophen-2-yl]thiophen-2-yl}thiophen-2-yl]thiophen-2-yl}thiophen-3-yl)acetic acid]
aggregated Aβ38, Aβ40 and Aβ42 in SDS fraction of brain homogenate [1]: significant decrease; also recorded: reduced
